In patent US20240366596A1, “TREATMENT OF HFPEF IN POST-MENOPAUSAL WOMEN WITH AN SGC STIMULATOR” (Cyclerion Therapeutics, Inc., priority 2021, published 2024):
Where two headings read alike, the source gives them in different places.

How the values were obtained:
[1] = test system: patients with chronic HF with HFpEF; conditions: top-line results; cited from earlier work
obese ZSF1 rats = assay: ZSF1 rat model of diabetic nephropathy with metabolic syndrome; type: in vivo
Description: All data are plotted as mean±SEM. #p<0.05. ##p<0.01 vs obese control.
Aged ZSF1 rats have also been reported to develop HF consistent with HFpEF. In the ZSF1 model of diabetic nephropathy and metabolic syndrome, olinciguat was renoprotective and associated with lower circulating glucose, cholesterol, and triglycerides, all of which are relevant for this the population of post-menopausal women with HFpEF that tend to show a metabolic phenotype. Also in this model, baseline plasma NT-proBNP levels were similar in all obese ZSF1 groups [obese, group treated with enalapril (ENP), ENP+OLI10 (enalapril+oli at 10 mg/kg), and ENP+OLI30 (enalapril+oli at 30 mg/kg)]. NT-proBNP, analyzed as change from baseline to the end of treatment, increased in the obese control and ENP groups, and decreased in ENP+OLI10 and ENP+OLI30 groups (FIG. 5).

[2] = test system: normotensive and hypertensive rats; assay: Blood pressure in normotensive and hypertensive rats; type: in vivo, rat
[3] = test system: Dahl salt-sensitive rat model; assay: Dahl salt-sensitive (DSS) hypertension rat model of HFpEF; type: in vivo; conditions: olinciguat 10 mg/kg, FIG. 4
Experimental: All data are plotted as mean±SEM. **p<0.01. ***p<0.001 vs high-salt (HS) control.
The cardioprotective effects of olinciguat were tested in two animal models of HF: the rat post-myocardial infarction (MI) model of heart failure with reduced ejection fraction and in the Dahl salt-sensitive (DSS) hypertension model, which develops HFpEF.

participants with HFpEF [4] = assay: CAPACITY HFpEF Phase 2 trial of praliciguat: cardiopulmonary exercise testing (CPET); type: in vivo, human
Description: (§1) A Multicenter, Randomized, Double-Blind, Placebo-Controlled, Phase 2 Study Evaluating the Safety and Efficacy of Different Doses of Praliciguat (IW-1973, Compound I-1) Over 12 Weeks in Patients with Heart Failure with Preserved Ejection Fraction (CAPACITY HFpEF).
The primary objectives of this clinical study (ClinicalTrials.gov Identifier NCT03254485) were to assess the safety of oral praliciguat when administered for approximately 12 weeks to participants with HFpEF, and to evaluate the effect of oral praliciguat on peak exercise capacity (as measured by oxygen consumption [VO2]) when administered for approximately 12 weeks to participants with HFpEF, both in all participants and in participants without permanent or persistent atrial fibrillation.
The primary efficacy endpoint was the change from baseline in peak VO2 as measured by cardiopulmonary exercise testing (CPET) at Week 12 of the Treatment period. CPET was performed at baseline, at Week 8 and again at Week 12 using a highly standardized study-specific protocol. To participate in this study, each study site had to submit 2 studies to the CPET Core Laboratory at Massachusetts General Hospital core laboratory for review, and studies had to be determined to be of adequate quality before the site was deemed CPET qualified. For the 3 CPETs required by the study protocol, each study participant was to use the same form of exercise (treadmill or bicycle) and undergo the CPETs at the same time of day (+2 hours), ≥1 hour after study medication dosing. As part of the procedure, participants exercised to peak capacity beginning with unloaded exercise and continuing with a symptom-limited incremental ramp to peak VO2 with requisite respiratory exchange ratio (RER)≥1. For the baseline CPET, a participant's RER had to be ≥1.0 in order to indicate an adequate test (i.e., adequate effort on the part of the study participant, to try to mitigate stopping for non-cardiopulmonary reasons [e.g., effort-related or musculoskeletal]). Additional CPET-related study eligibility criteria included a peak VO2 of ≤80% of the predicted or age- and sex-adjusted normal level (FLETCHER G F, et al. Exercise standards. A statement for healthcare professionals from the American Heart Association. Writing Group. Circulation. 1995;91 [2]: 580-615), which served as an objective indicator of exercise intolerance characteristic of HF. For the Week 8 and End of Treatment CPETs, participants were to exercise to maximum effort, ideally to RER≥1.0. Analysis of CPET measurements for eligibility and for efficacy analyses were conducted by the independent central CPET Core Lab that was blinded to treatment allocation.
(§2) The pre-specified major secondary endpoints were the change from baseline in 6-minute walk test (6MWT) distance at Week 12, the change from baseline in ventilatory efficiency as defined by VE/VCO2 slope (minute ventilation/volume of carbon dioxide production) as obtained via CPET at Week 12, and the number of CPET responders defined as participants who improved by at least 1.5 mL O2/kg/min in peak VO2 from baseline to Week 12. In the CPET responder analysis, participants who were hospitalized or who died due to heart failure during the study Treatment Period or were missing Week 12 post-dose CPET values were considered to be non-responders.
(§3) This Phase 2, multicenter, randomized, double-blind, placebo-controlled, parallel-group study evaluated the safety and efficacy of praliciguat compared with placebo. The study randomized 196 adults with established heart failure (HF) and limited exercise capacity with an ejection fraction (EF) of at least 40% and who had at least 2 of 4 risk factors for HFpEF (diabetes/prediabetes, hypertension, obesity, and advanced age) (see Inclusion and Exclusion Criteria below).
Dosing on Days 1 to 14 (±3) was 20 mg BID (twice daily). Dosing on Day 15 (±3) onward was 40 mg QD (once daily). […]

participants with HFpEF [5] = assay: CAPACITY HFpEF Phase 2 trial of praliciguat: safety (treatment-emergent adverse events); type: in vivo, human
Description: as §1
(§4) The primary safety endpoints were based on the incidence of treatment-emergent adverse events (TEAEs) and of TEAEs that were considered study drug-related by the investigator. TEAEs were defined as AEs that started or worsened in severity after administration of study drug. Medical history, prior and concomitant medications and surgeries/procedures, and adverse events (AEs) were collected throughout the study. Physical examination, vital sign measurements including orthostatic blood pressures, clinical laboratory tests, pregnancy tests, and ECGs were performed. Blood was also collected to determine pharmacokinetic (PK) parameters and plasma concentrations of praliciguat.
as §3

participants with HFpEF [6] = assay: CAPACITY HFpEF Phase 2 trial of praliciguat: cardiometabolic endpoints (blood pressure, HbA1c); type: in vivo, human; conditions: Week 12
Description: as §1, §4
Other exploratory endpoints included assessment of echocardiographic parameters (as determined by an independent, central echocardiography core laboratory that was blinded to treatment assignment); changes from baseline to Week 12 and Follow-up visits in New York Heart Association (NYHA) functional classification (I, II, III, or IV); cardiac events (hospitalizations of CV etiology and all deaths were analyzed by the central, independent, blinded cardiac events adjudicators who determined if an event was due to heart failure or was of other CV etiology); changes from baseline to Week 12 in blood and urine biomarker levels that are relevant to HF pathophysiology; and changes from baseline to Week 12 in NT-proBNP values, urine albumin creatinine ratios (UACRs), estimated glomerular filtration rates (eGFRs), and HOMA-IR changes. Changes from baseline responses in participants' self-administered health-related quality-of-life (QOL) questionnaires were also tabulated and analyzed, including the Kansas City Cardiomyopathy Questionnaire (KCCQ), the Sheehan Disability Scale (SDS), the EuroQol (EQ) 5D-5L, and the Quick Inventory of Depressive Symptomatology Self-Report 16-item version (QIDS-SR-16).
Whereas the change from baseline relative to placebo in the general population was a reduction of 3.5 mmHg in the systolic blood pressure, this change was 7.9 mmHg reduction for the subpopulation of elderly women. Similarly, whereas the change from baseline relative to placebo in the general population was a reduction of 2.1 mmHg in the diastolic blood pressure, this change was 8.2 mmHg reduction for the subpopulation of elderly women. And also similarly, the change from baseline relative to placebo in the general population was a reduction of 0.18% points in the measurement of HbA1C, this change was 0.41% reduction from baseline relative to placebo for the subpopulation of elderly women

participants with HFpEF [7] = assay: CAPACITY HFpEF Phase 2 trial of praliciguat: 6-minute walk test (6MWT); type: in vivo, human
Description: as §1, §2, §3
Screening Period: The Screening Period started with the signing of the ICF at the Screening Visit and lasted up to 45 days. At the Screening Visit, potential participants underwent screening procedures to determine their initial study eligibility. At the Baseline Visit, participants returned to the clinic for additional screening procedures to confirm their eligibility, including assessment of their CPET values, vital sign measurements, and blood and urine sample collections, and to receive urine sample collection supplies to take home. The Screening Visit could be combined with the Baseline Visit if the participant was fasted for blood and urine collections. CPET and 6MWT were to occur within 14 days before Randomization. The end of the Screening Period coincided with the beginning of the Treatment Period.

[8] = test system: subjects with symptomatic HF and an LVEF≥45%; conditions: women, spironolactone vs placebo, subjects from the Americas; cited from earlier work
[9] = test system: participants with chronic HF and an ejection fraction (EF) of ≥45% (i.e., HFpEF); conditions: cited from earlier work
[10] = test system: participants with chronic HF, an LVEF of at least 45% (i.e., HFpEF); conditions: cited from earlier work
[11] = test system: women compared with men with heart failure and preserved ejection fraction; conditions: cited from earlier work
[12] = 40 mg praliciguat vs placebo, Primary Analytic Population, Week 12
[13] = elderly women (older than 70), 12 weeks of treatment, CPET responder analysis
[14] = women of age > 70, week 12, 40 mg
[15] = women of age > 70, week 12, 40 mg vs placebo
[16] = pooled three highest vericiguat dose arms, 12 weeks, vs placebo

Molecule: OC[C@H]1O[C@@H](c2ccc(Cl)c(Cc3ccc(O[C@H]4CCOC4)cc3)c2)[C@H](O)[C@@H](O)[C@@H]1O [empagliflozin]
- risk for the composite of cardiovascular death or hospitalization for HF compared with placebo [1]: significantly reduced risk

Molecule: CCOC(=O)[C@H](CCc1ccccc1)N[C@@H](C)C(=O)N1CCC[C@H]1C(=O)O [enalapril, reference compound]
- NT-proBNP, change from baseline to the end of treatment (obese ZSF1 rats; enalapril alone (ENP group), plasma, FIG. 5): increased

Molecule: NC(=O)[C@](O)(CNc1nc(-c2cc(-c3ccon3)n(Cc3ccccc3F)n2)ncc1F)C(F)(F)F [olinciguat]
- blood pressure [2]: reduced blood pressure
- circulating cholesterol (obese ZSF1 rats; rat, in vivo): lower
- circulating glucose (obese ZSF1 rats; rat, in vivo): lower
- circulating triglycerides (obese ZSF1 rats; rat, in vivo): lower
- renoprotection (obese ZSF1 rats; rat, in vivo): renoprotective
- cardioprotection (cardiac weights) [3]: cardioprotective
- lung congestion (lung weights) [3]: reduced lung congestion
- NT-proBNP levels ([3]; plasma): reduced NT-proBNP levels

Molecule: OC(CNc1nc(-c2cc(-c3ccon3)n(Cc3ccccc3F)n2)ncc1F)(C(F)(F)F)C(F)(F)F [praliciguat]
- placebo-adjusted LSM difference in change from baseline in peak VO2 (participants with HFpEF [4]; [12]): -0.018 L/h/kg
- placebo-adjusted LSM difference in change in ventilation/carbon dioxide production slope (participants with HFpEF [4]; [12]): −0.3
- adjusted change from baseline in peak VO2 at Week 12 (participants with HFpEF [4]; 40 mg praliciguat, Primary Analytic Population (n=65), Week 12): -0.0156 L/h/kg
- patients with a higher than 1 mL/O2/kg/min improvement in peak VO2 (participants with HFpEF [4]; [13]): About 50%
- patients with a higher than 1.5 mL/O2/kg/min improvement in peak VO2 (participants with HFpEF [4]; [13]): 35-40%
- placebo-adjusted LSM difference in change from baseline in peak VO2 (participants with HFpEF [4]; post hoc, elderly women (70 years or older), 40 mg praliciguat (n=16) vs placebo (n=18), Week 8): 0.045 L/h/kg
- placebo-adjusted LSM difference in change from baseline in peak VO2 (participants with HFpEF [4]; post hoc, elderly women (70 years or older), 40 mg praliciguat (n=16) vs placebo (n=18), Week 12): 0.0948 L/h/kg
- improvement in peak work load (participants with HFpEF [4]; sub-population of elderly women, week 12): about 6.5%
- worsening in peak work load (participants with HFpEF [4]; whole population): 1%
- Peak Workload LS Mean (participants with HFpEF [4]; [14]): 12.6395 Watts
- Peak Workload LS Mean Diff (participants with HFpEF [4]; [15]): 6.5195 Watts
- deaths (participants with HFpEF [5]; 40 mg praliciguat, fatal events considered not related to study drug): One death
- participants with at least one TEAE of dizziness (participants with HFpEF [5]; human, in vivo, 12 weeks): 9.9%
- participants with at least one TEAE of headache (participants with HFpEF [5]; human, in vivo, 12 weeks): 11%
- participants with at least one TEAE of hypotension (participants with HFpEF [5]; human, in vivo, 12 weeks): 8.8%
- participants with at least one serious TEAE (participants with HFpEF [5]; human, in vivo, 12 weeks): 10%
- reduction in HbA1C, change from baseline relative to placebo (participants with HFpEF [6]; general population): 0.18 % points
- reduction in diastolic blood pressure, change from baseline relative to placebo (participants with HFpEF [6]; general population): 2.1 mmHg
- reduction in systolic blood pressure, change from baseline relative to placebo (participants with HFpEF [6]; general population): 3.5 mmHg
- reduction in HbA1C, change from baseline relative to placebo (participants with HFpEF [6]; subpopulation of elderly women): 0.41%
- reduction in diastolic blood pressure, change from baseline relative to placebo (participants with HFpEF [6]; subpopulation of elderly women): 8.2 mmHg
- reduction in systolic blood pressure, change from baseline relative to placebo (participants with HFpEF [6]; subpopulation of elderly women): 7.9 mmHg
- placebo-adjusted LSM difference in change from baseline in 6MWT distance (participants with HFpEF [7]; [12]): −16.7 m
- adjusted change in 6-minute walk test (6MWT) distance (participants with HFpEF [7]; 40 mg praliciguat, Primary Analytic Population, Week 12): 41.4 m
- improvement in 6MW vs placebo (participants with HFpEF [7]; subpopulation of elderly women): 23 meters
- Six Minute Walk Test LS Mean (participants with HFpEF [7]; [14]): 73.6369
- Six Minute Walk Test LS Mean Diff (participants with HFpEF [7]; [15]): 22.7533

Molecule: CC(=O)S[C@@H]1CC2=CC(=O)CC[C@]2(C)[C@H]2CC[C@@]3(C)[C@@H](CC[C@@]34CCC(=O)O4)[C@H]12 [spironolactone]
- all-cause mortality HR [8]: 0.66

Molecule: COC(=O)Nc1c(N)nc(-c2nn(Cc3ccccc3F)c3ncc(F)cc23)nc1N [vericiguat]
- proportion of participants achieving clinically meaningful improvements in KCCQ-clinical summary score ([9]; 10 mg vericiguat compared with placebo arm): larger proportion
- change in left atrial volume [9, 16]: NOT different from placebo
- change in log NT-proBNP [9, 16]: NOT different from placebo
- mean change in the physical limitation score of the KCCQ ([10]; 10-mg group): 6.5 points
- mean change in the physical limitation score of the KCCQ ([10]; 15-mg group): 5.5 points

Molecule: sacubitril-valsartan
- rate ratio for sacubitril-valsartan versus valsartan, primary outcome (HF hospitalizations and cardiovascular death) ([11]; men): 1.03
- rate ratio for sacubitril-valsartan versus valsartan, primary outcome (HF hospitalizations and cardiovascular death) ([11]; women): 0.73
